Assay results from US20250249007A1, “PHARMACEUTICAL COMPOSITIONS OF ENSIFENTRINE FOR CHRONIC OBSTRUCTIVE PULMONARY DISEASE” (Verona Pharma PLC, priority 2024, published 2025).

How the values were obtained:
[1] = popPK model simulation of ensifentrine PK by renal function (virtual population of COPD subjects); parameters: species or system human; settings: nebulization of 3 mg, simulated
Method: Plasma concentrations of ensifentrine for the assessment of pharmacokinetic (PK) parameters were measured using validated bioanalytical methods for ensifentrine in human plasma with LLOQ of 5 pg/mL. Samples were taken on the following schedule: • Week 6: 1.0 h (±0.5 h) and 2.5 h (±0.5 h) (even sites) or 1.5 h and 4 h (±1 h) (odd sites); • Week 12: pre-dose (−0.5 h), 4 to 6 h, and 8 to 12 h (even sites) or 0.5 h (±0.25 h), 3 h (±0.5 h), and 6 to 8 h (odd sites); • Week 24: pre-dose (−0.5 h) and 1.5 h (even sites) or pre-dose (−0.5 h) and 1 h (±0.5 h) (odd sites)
Based on the samples taken during the trial, PK data was modelled for COPD patients with varying levels of renal function:
A two-compartment model with first-order input and first-order elimination from the central compartment was fit to the plasma concentration-time data of ensifentrine using NONMEM® version 7.4.4. Different absorption functions and compartmental structures were explored. […]
The final model was evaluated using goodness of fit plots, bootstrap analysis, and visual predictive checks (VPCs). […]
Subjects with normal renal function to mild renal impairment are defined as those individuals with an absolute estimated glomerular filtration rate (aEGFR) of greater than or equal to 60 mL/min. […] Individual subject concentrations were simulated using NONMEM version 7.4.3, and PK parameters were calculated using R version 3.4.0. […]

[2] = Dose normalized steady-state AUCtau in non-COPD subjects with and without hepatic impairment; assay type: in vivo, human; settings: for AUC: human, plasma, inhaled, 3 mg, dose normalized to 3 mg, FIG. 3
Method: The dose normalized steady-state AUCtau for a 3 mg dose in non-COPD subjects with and without hepatic impairment is shown in FIG. 3. As described in FIG. 3 the AUCtau,ss of healthy subjects was from about 5000 pg/mL*h to about 9000 pg/mL*h. The AUCtau,ss of subjects with moderate hepatic impairment was about 4000 pg/mL*h to about 11000 pg/mL*h. The AUCtau,ss of subjects with severe hepatic impairment was about 5500 pg/mL*h to about 6500 pg/mL*h. […] The highest dose normalized AUCtau,ss observed in this subset was for a subject with moderate hepatic impairment, but this was not the highest exposure in the overall dataset as it was exceeded by two other subjects with COPD.

[3] = test system: patients with moderate to severe COPD; experiment: Clinical study of nebulized ensifentrine versus placebo in COPD: average FEV1 AUC0-12h at week 12; assay type: in vivo, human
Method: A clinical study was conducted to determine the efficacy of ensifentrine in treating COPD compared with placebo. Ensifentrine was administered by nebulizer at a dose of 3 mg twice daily (BID) for 24 weeks. The study was a multicenter, randomized, double-blind, parallel group, placebo-controlled trial with around 800 patients and 5:3 randomization.
The study population included patients aged 40-80 years with moderate to severe COPD (FEV1 30%-70% p.n., FEV1/forced vital capacity (FVC) ratio<0.7, with mMRC≥2). The randomization stratified (a) the use of stable background maintenance LAMA or LABA therapy use (approx. 50% yes or no) and (b) cigarette smoking (current or former). Inhaled corticosteroid (ICS) maintenance therapy was permitted in up to 20% of patients under certain provisions.
The primary endpoint of the study was change from baseline in average FEV1 area under the curve (AUC0-12h) […] at week 12; morning trough FEV1 at week 12; and other endpoints including moderate/severe COPD exacerbations frequency over 24 weeks.
Baseline FEV1 is the mean of the two measurements taken before study medication on the day of first dosing, i.e., ≤40 minutes and just prior to dosing, both pre-dose on day 1. Average FEV1 AUC0-12h is defined as area under the curve over 12 h of the FEV1, divided by 12 h.
The investigational product and placebo were provided in 2.5 mL unit dose format in an ampule and administered via a nebulizer. The formulation of the investigational product (ensifentrine suspension formulation comprising crystalline polymorph Form I of ensifentrine) and placebo are shown in Table 2.

COc1cc2c(cc1OC)-c1c/c(=N\c3c(C)cc(C)cc3C)n(CCNC(N)=O)c(=O)n1CC2 [Ensifentrine, N-(2-{(2E)-9,10-dimethoxy-4-oxo-2-[(2,4,6-trimethylphenyl)imino]-6,7-dihydro-2H-pyrimido[6,1-a]isoquinolin-3(4H)-yl}ethyl)urea]
AUC ratio aEGFR < 60 mL/min: ≥60 mL/min [1]: 1.30
Cmax ratio aEGFR < 60 mL/min: ≥60 mL/min [1]: 1.16
AUC ([2]; healthy subjects): 5 to 9 ng·h/mL
AUC ([2]; subjects with moderate hepatic impairment (n=10)): 4 to 11 ng·h/mL
AUC ([2]; subjects with severe hepatic impairment (n=2)): 5.5 to 6.5 ng·h/mL
Exposure (AUC) in hepatic impairment versus healthy subjects ([2]; moderate (n=10) or severe (n=2) hepatic impairment): comparable to healthy subjects
Average FEV1 (AUC)0-12 h post-dose at Week 12: Change from Baseline, CFB Least Squares Mean (95% CI) ([3]; 3 mg BID by nebulizer, week 12, n = 498): 48.2 (30.0, 66.5) mL
Average FEV1 (AUC)0-12 h post-dose at Week 12: Placebo-corrected CFB LS Mean Diff. (95% CI) ([3]; 3 mg BID by nebulizer, week 12, versus placebo): 93.9 (64.5, 123.3) mL
Improvement in lung function ([3]; individuals with normal renal function to mild renal impairment and subjects with moderate renal impairment): statistically significant improvement in lung function
